Where two headings read alike, the source gives them in different places.

Assay [1] deals with USP30 constructs (construct 1, chimeras 1–3). In words: Ub–RhoG cleavage enzyme inhibition assay, statements across constructs. The format is biochemical, human. To be noted: addition of hydroxyl group at the tert-butyl group. How it is done:
Enzyme kinetics were performed in black, low-volume, non-binding-surface 384-well plates. For activity assays, 2× Ub–RhoG substrate (final concentration, 50 nM) and 2× enzyme (final concentration, 0.25–32 nM) were prepared in 20 mM HEPES, pH 8.0, 50 mM NaCl, 5 mM DTT, 0.1 mg ml^−1 BSA. Next, 10 µl of 2× enzyme solution was added in triplicate to the plate. The reaction was started by adding 10 µl of 2× substrate solution. For enzyme inhibition assays, 2× substrate (final concentration, 100 nM), 4× enzyme (final concentration, 0.1 nM) and 4× inhibitor (final concentration, 1.6 pM–1.6 μM) were prepared in 50 mM Tris-HCl, pH 8.0, 0.05 mg ml^−1 BSA, 4 mM DTT, 0.01% Tween-20. Inhibitor solution (4×) was added to 4× enzyme solution to create a 2× enzyme–inhibitor mixture. Next, 10 µl of this 2× enzyme–inhibitor mixture was then added to the plate in triplicate, and the plate was incubated at room temperature for 90 min. The reaction was started by adding 10 µl of 2× Ub–RhoG substrate. Substrate cleavage was monitored by measurement of cleaved RhoG fluorescence (excitation, 492 nm; emission, 525 nm) every 30 s for 1 h at 25 °C on a Tecan Spark plate reader. Data were analyzed with GraphPad Prism.

Assay [2] has as its system overexpressed USP30 F157A, I154A, A162S in HEK293 cells. As to the kind of experiment: Cellular ubiquitin probe competition, overexpressed USP30 F157A, I154A, A162S. The format is cell-based, human. To be noted: 2 µM compound, 2 h. How it is done:
HEK293 cells (8 × 10^5 cells per well) were seeded in six-well plates and cultivated for 24 h. PEI transfecting reagent (Polysciences) was pre-incubated for 10 min with the vectors in 200 μl Opti-MEM medium (2 µg DNA per well). Cells were transfected and incubated for 48 h. Following the treatment with either compounds or DMSO in fresh medium for an additional 2 h, cells were processed as described below. Cells were seeded at 8 × 10^5 cells per well and grown for 48 h. […] The medium was aspirated, and cells were washed once with ice-cold PBS. Cells were collected by scraping in lysis buffer (150 mM NaCl, 250 mM sucrose, 50 mM Tris, pH 8.0, 5 mM TCEP) supplemented with EDTA-free complete protease inhibitor cocktail and benzonase. Suspended cells were homogenized by 12 bursts of a microtip probe sonicator (Branson Sonifier 450) at 10% amplitude with pulses of 1 s on ice. Remaining cell debris was separated by centrifugation (20,817g, 5 min, 4 °C). […] After incubation for 10 min at room temperature, reactions were quenched by the addition of 4× reducing LDS sample buffer. Samples were resolved by SDS–PAGE and further analyzed via western blot. Using a Trans-Blot Turbo system (Bio-Rad, 1.0 A, 25 V, 30 min), proteins were blotted onto a nitrocellulose membrane. […]

Assay [3] has as its target USP30^ch2 (Homo sapiens, UniProt Q70CQ3). In words: Ub–RhoG cleavage enzyme inhibition assay, chimera 2. The format is biochemical. On the set-up: scale not given here. To be noted: mean n=3. As to the method: (§1) Enzyme kinetics were performed in black, low-volume, non-binding-surface 384-well plates. […] Next, 10 µl of 2× enzyme solution was added in triplicate to the plate. The reaction was started by adding 10 µl of 2× substrate solution. […] Inhibitor solution (4×) was added to 4× enzyme solution to create a 2× enzyme–inhibitor mixture. Next, 10 µl of this 2× enzyme–inhibitor mixture was then added to the plate in triplicate, and the plate was incubated at room temperature for 90 min. The reaction was started by adding 10 µl of 2× Ub–RhoG substrate. […] Data were analyzed with GraphPad Prism.

Assay [4] concerns the target USP30^ch3 (Homo sapiens, UniProt Q70CQ3). As to the kind of experiment: Ub–RhoG cleavage enzyme inhibition assay, chimera 3 (WT). The assay is classed as biochemical. To be noted: mean n=3. As to the method: as §1
For assay [5], the target named is USP30^ch3 A162S (Homo sapiens, UniProt Q70CQ3, A162S, form not given). In words: Ub–RhoG cleavage enzyme inhibition assay, chimera 3 A162S. The format is biochemical. The settings on record: mean n=3. As to the method:
as §1

The test system of assay [6] is USP30. The settings on record: read-out: Cellular ABPP IC50 / cellular target engagement, cited from earlier work.

Sequence of USP30^ch3 (Q70CQ3 64-502): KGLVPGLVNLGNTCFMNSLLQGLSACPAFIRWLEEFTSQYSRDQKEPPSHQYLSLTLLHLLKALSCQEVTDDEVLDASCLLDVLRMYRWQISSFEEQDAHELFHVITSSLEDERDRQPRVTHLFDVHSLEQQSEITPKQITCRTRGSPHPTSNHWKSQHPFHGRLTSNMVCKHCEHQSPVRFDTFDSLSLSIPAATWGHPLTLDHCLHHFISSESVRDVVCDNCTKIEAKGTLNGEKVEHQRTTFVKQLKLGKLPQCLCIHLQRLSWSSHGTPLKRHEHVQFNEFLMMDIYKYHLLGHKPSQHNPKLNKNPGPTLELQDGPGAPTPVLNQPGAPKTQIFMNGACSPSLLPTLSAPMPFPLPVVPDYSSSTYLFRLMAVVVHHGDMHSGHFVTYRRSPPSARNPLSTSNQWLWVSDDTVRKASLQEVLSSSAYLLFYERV
Sequence of USP30^ch3 (P54578 248-318 partner): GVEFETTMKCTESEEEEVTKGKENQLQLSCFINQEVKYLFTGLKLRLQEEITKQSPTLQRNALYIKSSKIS
Sequence of USP30^ch3 (Q9P2H5 821-846 partner): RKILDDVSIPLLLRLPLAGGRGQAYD
Sequence of USP30^ch2 (Q70CQ3 64-502): as the sequence (Q70CQ3 64-502) above
Sequence of USP30^ch2 (P54578 248-318 partner): as the sequence (P54578 248-318 partner) above
Sequence of USP30^ch3 A162S (Q70CQ3 64-502 A162S, form open): as the sequence (Q70CQ3 64-502) above, with A99S counted along it
Sequence of USP30^ch3 A162S (P54578 248-318 partner, form open): as the sequence (P54578 248-318 partner) above

As to `CC(C)(CO)NS(=O)(=O)c1ccc(NC(=O)[C@H](Cc2ccccc2)NC(=O)c2ccc(F)cc2)cc1` [NK036], the “decrease in potency relative to compound 39” value in assay [1] was “about one order of magnitude”. In addition, in assay [2], the “inhibition of overexpressed USP30 F157A, I154A, A162S in cells” value is listed as “refractory to inhibition”.

On to `CC(C)(C)NS(=O)(=O)c1ccc(NC(=O)[C@H](Cc2ccccc2)NC(=O)c2ccc(F)cc2)cc1` [compound 39], for which the USP30ch2 activity in assay [3] (inhibitor 0.0015625 nM) was found to be 0.9681; in assay [3] (inhibitor 0.00625 nM) it was 1.022; in assay [3] (inhibitor 0.025 nM), 0.8647; in assay [3] (inhibitor 0.1 nM) it was 0.7206; in assay [3] (inhibitor 0.39 nM) it was 0.5237; in assay [3] (inhibitor 1.56 nM) it was 0.3579. Besides, the USP30ch2 activity stood at 0.1977 in assay [3] (inhibitor 6.25 nM); 0.0871 in assay [3] (inhibitor 25 nM); 0.04077 in assay [3] (inhibitor 100 nM); 0.01798 in assay [3] (inhibitor 400 nM); 0.005204 in assay [3] (inhibitor 1600 nM). In addition, the “USP30ch3 WT activity (Fig. 5d / ED Fig. 7e series)” value was 0.9251 in assay [4] (inhibitor 0.001563 nM); 0.867 in assay [4] (inhibitor 0.00625 nM); 0.8429 in assay [4] (inhibitor 0.025 nM); 0.705 in assay [4] (inhibitor 0.1 nM); 0.5733 in assay [4] (inhibitor 0.39 nM); 0.4495 in assay [4] (inhibitor 1.56 nM). Further, the “USP30ch3 WT activity (Fig. 5d / ED Fig. 7e series)” value in assay [4] (inhibitor 6.25 nM) is reported as 0.2804; in assay [4] (inhibitor 25 nM), 0.1378; in assay [4] (inhibitor 100 nM), 0.05989; in assay [4] (inhibitor 400 nM) it was 0.03092; in assay [4] (inhibitor 1600 nM), 0.02661. Moreover, the USP30ch3 activity is 0.8546 in assay [4] (inhibitor 0.00625 nM); 0.7063 in assay [4] (inhibitor 0.025 nM); 0.6531 in assay [4] (inhibitor 0.1 nM); 0.4658 in assay [4] (inhibitor 0.39 nM); 0.3269 in assay [4] (inhibitor 1.56 nM); 0.1958 in assay [4] (inhibitor 6.25 nM). In addition, the USP30ch3 activity in assay [4] (inhibitor 25 nM) was 0.09897; in assay [4] (inhibitor 100 nM), 0.03567; in assay [4] (inhibitor 400 nM), 0.008529; in assay [4] (inhibitor 1600 nM), -0.001344; in assay [4] (inhibitor 0.0015625 (0.001563) nM), 0.9081. The “USP30ch3 A162S activity” value was determined as 0.9737 in assay [5] (inhibitor 0.001563 nM); 1.01 in assay [5] (inhibitor 0.00625 nM); 0.9776 in assay [5] (inhibitor 0.025 nM); 0.9451 in assay [5] (inhibitor 0.1 nM); 0.896 in assay [5] (inhibitor 0.39 nM); 0.93 in assay [5] (inhibitor 1.56 nM). The “USP30ch3 A162S activity” value in assay [5] (inhibitor 6.25 nM) came out at 0.7972; in assay [5] (inhibitor 25 nM), 0.6308; in assay [5] (inhibitor 100 nM), 0.4027; in assay [5] (inhibitor 400 nM) it was 0.2411; in assay [5] (inhibitor 1600 nM) it was 0.2091. Further, the IC50 was less than 50 nM in assay [6] (listed as Compound 39) and 10 to 50 nM in assay [6].

These data come from paper PMC12440824, “Chimeric deubiquitinase engineering reveals structural basis for specific inhibition of the mitophagy regulator USP30” (Nature Structural & Molecular Biology, 2025).
